Experiment: xn = mol fraction of the nth substance listed
Conditions: 100 kPa, Liquid; for mass density: Vibrating tube method; for viscosity: Concentric cylinders viscometry

Nc1ccccc1 [aniline] + CCC(C)O
Conditions | mass density, 308.15 K [kg/m3] | mass density, 313.15 K [kg/m3] | mass density, 318.15 K [kg/m3] | mass density, 323.15 K [kg/m3] | viscosity, 313.15 K [mPa·s] | viscosity, 318.15 K [mPa·s] | viscosity, 323.15 K [mPa·s]
x1 = 0.0813 | 811.9 | 807.5 | 802.9 | 798.2 | 1.65 | 1.42 | 1.24
x1 = 0.16 | 829.1 | 824.7 | 820 | 815.2 | 1.52 | 1.31 | 1.15
x1 = 0.24 | 846.6 | 842.1 | 837.3 | 832.5 | 1.416 | 1.21 | 1.07
x1 = 0.3502 | 870.5 | 865.9 | 861.1 | 856.2 | 1.33 | 1.13 | 1
x1 = 0.44 | 890 | 885.3 | 880.5 | 875.5 | 1.29 | 1.11 | 0.99
x1 = 0.5601 | 915.8 | 911.2 | 906.4 | 901.3 | 1.3 | 1.13 | 1.014
x1 = 0.65 | 935 | 930.5 | 925.7 | 920.7 | 1.35 | 1.19 | 1.075
x1 = 0.74 | 954.2 | 949.6 | 945 | 940 | 1.49 | 1.31 | 1.189
x1 = 0.8499 | 977.4 | 973 | 968.5 | 963.5 | 1.78 | 1.58 | 1.46
x1 = 0.94 | 996.4 | 992 | 987.6 | 982.7 | 2.14 | 1.9 | 1.75
x1 = 1 | 1009 | 1004.7 | 1000.4 | 995.5 | 2.43 | 2.14 | 1.96

— the NIST ThermoML archive (doi:10.1021/acs.jced.6b00210)
